Laboratory results taken from patent US20100119599A1 (ARCHER PHARMACEUTICALS, INC., priority 2006, published 2010).
Read-outs that look alike come from different tables or passages of the source.

What was measured:
Aβ1-40 = experiment: Measurement of Aβ1-40 in culture medium of 7W WT APP751 CHO cells by ELISA; format: cell-based, Chinese hamster; conditions: for activity at 5 µM: Cricetulus griseus, 5 μM test compound, CHO cells stably transfected with human APP751, culture medium, ELISA, control DMSO; for Aβ1-40 (% of control): CHO cells that overexpress APP751, zero = below the detection limit of the assay;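 on all read-outs here: 5 µM test compound but RI-coded compounds at 10 µM for 24 hours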
Aβ1-42 = experiment: Measurement of Aβ1-42 in culture medium of 7W WT APP751 CHO cells by ELISA; format: cell-based, Chinese hamster; conditions: for activity at 5 µM: Cricetulus griseus, 5 μM test compound, CHO cells stably transfected with human APP751, culture medium, ELISA, control DMSO; for Aβ1-42 (% of control): CHO cells that overexpress APP751, zero = below the detection limit of the assay;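 on Aβ1-42 (% of control): 5 µM test compound but RI-coded compounds at 10 µM for 24 hours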
[1] = Table 3, read-out: Aβ-42 (% of control)
[2] = Table 1, 0 = no detectable amount
[3] = Table 1, 0 = no detectable amount, read-out: Aβ1-42 (% of control)

Row | SMILES | Aβ1-40 (% of control) (Aβ1-40) | Aβ1-42 (% of control) (Aβ1-42) | activity at 5 µM (Aβ1-40; [2]) [%] | activity at 5 µM (Aβ1-42; [3]) [%] | further results
1 | N[C@@H](Cn1ccc(=O)c(O)c1)C(=O)O [ST056312, (2S)-2-amino-3-(3-hydroxy-4-oxohydropyridyl)propanoic acid] | – | – | – | – | activity at 5 µM (Aβ1-40; Table 3): 70.7%; activity at 5 µM (Aβ1-42; [1]): 37.1%
2 | CCOC(=O)C1=C(C)NC(C)=C(C(=O)OC)C1c1ccc(Br)cc1 (stereo not drawn) [ST063245, ethyl 4-(4-bromophenyl)-5-(methoxycarbonyl)-2,6-dimethyl-1,4-dihydropyridine-3-carboxylate] | 8.423 % of control | 0 % of control | – | – | –
3 | N#CC(C#N)=CC=C1C=CN(Cc2ccccc2)C=C1 [ST208051, {2-[1-benzyl-4-hydropyridylidene]ethylidene}methane-11-dicarbonitrile] | – | – | – | – | activity at 5 µM (Aβ1-40; Table 3): 57.1%; activity at 5 µM (Aβ1-42; [1]): 75%
4 | COC(=O)C1=C(C)NC(C)=C(C(=O)OC)C1c1ccc(Br)cc1 [ST208633, methyl 4-(4-bromophenyl)-5-(methoxycarbonyl)-2,6-dimethyl-1,4-dihydropyridine-3-carboxylate] | 9.12 % of control | 0 % of control | – | – | –
5 | COC(=O)C1=C(C)NC(C)=C(C(=O)OC)C1c1cccc(Br)c1 [ST208634, methyl 4-(3-bromophenyl)-5-(methoxycarbonyl)-2,6-dimethyl-1,4-dihydropyridine-3-carboxylate] | 80.5 % of control | 32.51 % of control | – | – | –
6 | CCOC(=O)C1=C(C)NC2=C(C(=O)CCC2)C1c1ccc(Br)cc1 (stereo not drawn) [ST211289, ethyl 4-(4-bromophenyl)-2-methyl-5-oxo-1,4,6,7,8-pentahydroquinoline-3-carboxylate] | – | – | 89.1 | 63.6 | –
7 | CCOC(=O)C1=C(C)NC(C)=C(C(=O)OCC)C1c1c(Cl)cccc1Cl [ST211423, ethyl 4-(2,6-dichlorophenyl)-5-(ethoxycarbonyl)-2,6-dimethyl-1,4-dihydropyridine-3-carboxylate] | 2.731 % of control | 0 % of control | – | – | –
8 | CCOC(=O)C1=C(C)NC(C)=C(C(=O)OC)C1c1cc(Cl)cc(Cl)c1OC (stereo not drawn) [ST211424, methyl 4-(3,5-dichloro-2-methoxyphenyl)-5-(ethoxycarbonyl)-2,6-dimethyl-1,4-dihydropyridine-3-carboxylate] | 62.46 % of control | 91.29 % of control | – | – | –
9 | CCOC(=O)C1=C(C)NC(C)=C(C(=O)OCC)C1c1ccc(F)cc1 [ST211500, ethyl 5-(ethoxycarbonyl)-4-(4-fluorophenyl)-2,6-dimethyl-1,4-dihydropyridine-3-carboxylate] | 20.67 % of control | 19.53 % of control | – | – | –
10 | N#CC1=C(N)n2c(s/c(=C/c3ccncc3)c2=O)=C(C#N)C1c1ccncc1 (stereo not drawn) [ST211853, 5-amino-3-oxo-7-(4-pyridyl)-2-(4-pyridylmethylene)-4,7-dihydro-1,3-thiazolidino[3,2-a]pyridine-6,8-dicarbonitrile] | 49 % of control | 18.37 % of control | – | – | –
11 | CCOC(=O)C1=C(C)NC2=C(C(=O)CCC2)C1c1cc2c(cc1[N+](=O)[O-])OCO2 (stereo not drawn) [ST212479, ethyl 2-methyl-4-(6-nitro(2H-benzo[d]1,3-dioxolan-5-yl))-5-oxo-1,4,6,7,8-pentahydroquinoline-3-carboxylate] | – | – | 60.2 | 29.3 | –
12 | CCOC(=O)C1=C(C)NC2=C(C(=O)CCC2)C1c1ccc(OCC)cc1 (stereo not drawn) [ST213781, ethyl 4-(4-ethoxyphenyl)-2-methyl-5-oxo-1,4,6,7,8-pentahydroquinoline-3-carboxylate] | – | – | 66.8 | 81.3 | –
13 | CCCCOC(=O)C1=C(C)NC2=C(C(=O)CC(C)(C)C2)C1c1ccc(Cl)c(Cl)c1 (stereo not drawn) [ST215419, butyl 4-(3,4-dichlorophenyl)-2,7,7-trimethyl-5-oxo-1,4,6,7,8-pentahydroquinoline-3-carboxylate] | – | – | 0 | 0 | –
14 | COc1ccc(C2C(C(=O)OC(C)C)=C(C)NC3=C2C(=O)CC(C)(C)C3)cc1Br (stereo not drawn) [ST215449, methylethyl 4-(3-bromo-4-methoxyphenyl)-2,7,7-trimethyl-5-oxo-1,4,6,7,8-pentahydroquinoline-3-carboxylate] | – | – | 24.5 | 25.7 | –
15 | CCCCOC(=O)C1=C(C)NC2=C(C(=O)CC(C)(C)C2)C1c1ccccc1[N+](=O)[O-] (stereo not drawn) [ST215464, butyl 2,7,7-trimethyl-4-(2-nitrophenyl)-5-oxo-1,4,6,7,8-pentahydroquinoline-3-carboxylate] | – | – | 62.7 | 90.7 | –
16 | CCOC(=O)C1=C(N)n2c(s/c(=C/c3ccccc3Cl)c2=O)=C(C#N)C1c1ccccc1Cl (stereo not drawn) [ST215651, ethyl 5-amino-7-(2-chlorophenyl)-2-[(2-chlorophenyl)methylene]-8-cyano-3-oxo-4,7-dihydro-1,3-thiazolidino[3,2-a]pyridine-6-carboxylate] | 80.92 % of control | 42.3 % of control | – | – | –
17 | Cc1ccc(/C=c2/sc3n(c2=O)C(N)=C(C#N)C(c2ccc(C)cc2)C=3C#N)cc1 (stereo not drawn) [ST215709, 5-amino-7-(4-methylphenyl)-2-[(4-methylphenyl)methylene]-3-oxo-4,7-dihydro-1,3-thiazolidino[3,2-a]pyridine-6,8-dicarbonitrile] | 55.91 % of control | 78.43 % of control | – | – | –
18 | COc1cccc(/C=c2/sc3n(c2=O)C(N)=C(C#N)C(c2cccc(OC)c2)C=3C#N)c1 (stereo not drawn) [ST215713, 5-amino-7-(3-methoxyphenyl)-2-[(3-methoxyphenyl)methylene]-3-oxo-4,7-dihydro-1,3-thiazolidino[3,2-a]pyridine-6,8-dicarbonitrile] | 69.2 % of control | 80.48 % of control | – | – | –
19 | CCCCOC(=O)C1=C(C)NC2=C(C(=O)CC(C)(C)C2)C1c1cc2c(cc1[N+](=O)[O-])OCO2 (stereo not drawn) [ST216053, butyl 2,7,7-trimethyl-4-(6-nitro(2H-benzo[d]1,3-dioxolen-5-yl))-5-oxo-1,4,6,7,8-pentahydroquinoline-3-carboxylate] | – | – | 22.2 | 6.37 | –
20 | CCCCCOC(=O)C1=C(C)NC2=C(C(=O)CC(C)(C)C2)C1c1ccc(Cl)c(Cl)c1 (stereo not drawn) [ST216061, pentyl 4-(3,4-dichlorophenyl)-2,7,7-trimethyl-5-oxo-1,4,6,7,8-pentahydroquinoline-3-carboxylate] | – | – | 0 | 0 | –
21 | CCCCCOC(=O)C1=C(C)NC2=C(C(=O)CC(C)(C)C2)C1c1ccccc1Br (stereo not drawn) [ST216079, pentyl 4-(2-bromophenyl)-2,7,7-trimethyl-5-oxo-1,4,6,7,8-pentahydroquinoline-3-carboxylate] | – | – | 25.8 | 20.5 | –
22 | CCCCCOC(=O)C1=C(C)NC2=C(C(=O)CC(C)(C)C2)C1c1ccc([N+](=O)[O-])cc1 (stereo not drawn) [ST216093, pentyl 2,7,7-trimethyl-4-(4-nitrophenyl)-5-oxo-1,4,6,7,8-pentahydroquinoline-3-carboxylate] | – | – | 0 | 0 | –
23 | CCCCCOC(=O)C1=C(C)NC2=C(C(=O)CC(C)(C)C2)C1c1cc2c(cc1Br)OCO2 (stereo not drawn) [ST216568, pentyl 4-(6-bromo(2H-benzo[d]1,3-dioxolan-5-yl))-2,7,7-trimethyl-5-oxo-1,4,6,7,8-pentahydroquinoline-3-carboxylate] | – | – | 14.8 | 24.7 | –
24 | CCCCCOC(=O)C1=C(C)NC2=C(C(=O)CC(C)(C)C2)C1c1ccc2c(c1)OCO2 (stereo not drawn) [ST216581, pentyl 4-(2H-benzo[3,4-d]1,3-dioxolan-5-yl)-2,7,7-trimethyl-5-oxo-1,4,6,7,8-pentahydroquinoline-3-carboxylate] | – | – | 28.6 | 41.6 | –
25 | CCCCCOC(=O)C1=C(C)NC2=C(C(=O)CC(C)(C)C2)C1c1ccc(C)cc1 (stereo not drawn) [ST216602, pentyl 2,7,7-trimethyl-4-(4-methylphenyl)-5-oxo-1,4,6,7,8-pentahydroquinoline-3-carboxylate] | – | – | 2.65 | 5.01 | –
26 | CCCCCOC(=O)C1=C(C)NC2=C(C(=O)CC(C)(C)C2)C1c1ccc(OC)cc1 (stereo not drawn) [ST216606, pentyl 4-(4-methoxyphenyl)-2,7,7-trimethyl-5-oxo-1,4,6,7,8-pentahydroquinoline-3-carboxylate] | – | – | 1.4 | 9.56 | –
27 | CC1=C(C(=O)OCc2ccccc2)C(c2ccccc2Br)C2=C(CC(C)(C)CC2=O)N1 (stereo not drawn) [ST216854, phenylmethyl 4-(2-bromophenyl)-2,7,7-trimethyl-5-oxo-1,4,6,7,8-pentahydroquinoline-3-carboxylate] | – | – | 29.4 | 60 | –
28 | CC1=C(C(=O)OCc2ccccc2)C(c2ccccc2I)C2=C(CC(C)(C)CC2=O)N1 (stereo not drawn) [ST216858, phenylmethyl 4-(2-iodophenyl)-2,7,7-trimethyl-5-oxo-1,4,6,7,8-pentahydroquinoline-3-carboxylate] | – | – | 30.1 | 61.5 | –
29 | COC(=O)C1=C(C)NC2=C(C(=O)CC(C)(C)C2)C1c1ccc(-c2ccccc2)cc1 (stereo not drawn) [ST216875, methyl 2,7,7-trimethyl-5-oxo-4-(4-phenylphenyl)-1,4,6,7,8-pentahydroquinoline-3-carboxylate] | – | – | 14.2 | 33 | –
30 | CC1=C(C(=O)OC2CCCCC2)C(c2ccc3c(c2)OCO3)C2=C(CC(C)(C)CC2=O)N1 (stereo not drawn) [ST216920, cyclohexyl 4-(2H-benzo[3,4-d]1,3-dioxolen-5-yl)-2,7,7-trimethyl-5-oxo-1,4,6,7,8-pentahydroquinoline-3-carboxylate] | – | – | 1.4 | 3.82 | –
